The record followed here is patent publication US8580496B2, “Method and kit for the detection of genes associated with PIK3CA mutation and involved in PI3K/AKT pathway activation in the ER-postitive and HER2-positive subtypes with clinical implications” (Universite Libre de Bruxelles, priority 2008, dated 2013).

SMILES strings stand for the structures.

The test system of test [1] is PIK3CA mutant lines including MCF7 and T47D. The test can be described thus: Sensitivity of breast cancer cell lines to tamoxifen, PIK3CA mutant vs normal lines. It is filed as cell-based.
Test [2] has as its system breast cancer patients. The test can be described thus: Clinical outcome of breast cancer patients treated with tamoxifen, by PIK3CA mutated signature. It is filed as in vivo, human. From the text: Primary breast cancer tumour samples from a previously described “tamoxifen-only treated” data set (Loi, 2007; J. Clin Oncol., 25, 1239-46;) were collected for DNA extraction and mutation analysis. The inventors obtained DNA from 173 samples for PIK3CA mutation sequencing and from 131 samples for AKT1 mutation analysis. The median follow-up of these samples was 9.0 yrs (range: 8.2-9.8 yrs), with 45 (28%) distant metastatic events.
Part of the tamoxifen-treated dataset has previously been described (Loi, 2007). Another 77 primary breast cancer samples also treated with tamoxifen monotherapy with corresponding Affymetrix gene expression data was also used for the survival analysis.
The inventors have developed an index called the PIK3CA index that could measure the similarity between the expression profile of any given tumour sample and the PI3K/AKT pathway activation by breast cancers with a PIK3CA mutation.
Statistical analysis was performed using the SPSS statistical software package (SPSS Inc. Chicago, Ill.) version 13.0. […]
Breast cancer molecular subgroups were defined using a previously reported method of WIRAPATI ET AL, 2008, Breast cancer […], 10, R65. The gene expression grade index (GGI) was used as a quantification of the expression of proliferation genes (SOTRIOU ET AL, 2006). […]

Consider `CC/C(=C(\c1ccccc1)c1ccc(OCCN(C)C)cc1)c1ccccc1` [tamoxifen], for which the sensitivity to tamoxifen result in test [1] is recorded as “more sensitive”. Besides, in test [2] (Her2 positive BC patients with the mutated PIK3CA signature vs the other Her2 positive patients), the response to tamoxifen entry is “responded better”. In addition, the “benefit from tamoxifen (clinical outcome)” value in test [2] (luminal B tumours, higher vs lower expression levels of the PIK3CA signature (FIG. 4)) was “benefit better”.
